Molecules are shown by their SMILES. Values joined by “and” are separate entries in the source; they are usually repeats but may differ in a detail not shown here. Equal values may be shown once. A value given as a limit tells only on which side of the number the result lay.

For this experiment, the target named is T1, recombinant human PREP (Homo sapiens, UniProt P48147).
T1 construct: purchased R&D System
T1 sequence (P48147 1-710): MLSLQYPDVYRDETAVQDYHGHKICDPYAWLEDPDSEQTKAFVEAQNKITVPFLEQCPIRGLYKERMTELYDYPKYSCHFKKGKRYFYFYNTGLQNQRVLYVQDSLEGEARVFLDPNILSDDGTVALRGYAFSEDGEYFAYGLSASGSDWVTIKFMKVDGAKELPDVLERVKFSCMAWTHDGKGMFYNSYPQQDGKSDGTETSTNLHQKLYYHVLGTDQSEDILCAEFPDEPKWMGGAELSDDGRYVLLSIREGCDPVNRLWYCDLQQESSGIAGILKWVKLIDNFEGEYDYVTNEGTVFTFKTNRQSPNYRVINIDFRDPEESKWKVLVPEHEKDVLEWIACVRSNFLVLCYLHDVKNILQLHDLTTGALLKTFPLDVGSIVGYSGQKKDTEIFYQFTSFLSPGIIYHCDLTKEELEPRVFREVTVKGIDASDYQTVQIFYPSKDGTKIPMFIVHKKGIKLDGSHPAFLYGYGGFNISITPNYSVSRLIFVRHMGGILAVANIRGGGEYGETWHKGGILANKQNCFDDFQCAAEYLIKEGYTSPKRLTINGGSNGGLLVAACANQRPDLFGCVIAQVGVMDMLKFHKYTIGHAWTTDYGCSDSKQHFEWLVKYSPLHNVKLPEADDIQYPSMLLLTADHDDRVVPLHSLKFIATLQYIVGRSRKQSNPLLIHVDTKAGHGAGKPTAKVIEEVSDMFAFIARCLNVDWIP
The experiment can be described thus: PREP inhibition, fluorogenic substrate Z-Gly-Pro-AMC. In kind it is biochemical. Particulars: Inhibitory Activity (IC50, nM) PREP, recombinant human PREP. In outline: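 Inhibitors are titrated in an 8-point series into the enzyme's assay buffer (DMSO no more than 0.5%). Substrate cleavage at 25 °C is followed by fluorescence, excitation 380 nm and emission 460 nm. IC50 values come from a four-variable logistic model.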
As a reminder, the IC50 is the concentration that gives 50% inhibition. Regarding `N#C[C@@H]1C[C@H](F)CN1C(=O)CN1CC[C@H](Nc2ccc(OC(F)(F)F)c3ncccc23)C1` [Example 266, (2S,4S)-4-fluoro-1-[2-[(3S)-3-[[8-(trifluoromethoxy)-5-quinolyl]amino]pyrrolidin-1-yl]acetyl]pyrrolidine-2-carbonitrile], the concentration for half-maximal inhibition (IC50) was found to be 3170 nM. As for `N#C[C@@H]1C[C@H](F)CN1C(=O)CN1CCC(Nc2cccc3cnc(Cl)cc23)CC1` [Example 352, (2S,4S)-1-[2-[4-[(3-chloro-5-isoquinolyl)amino]-1-piperidyl]acetyl]-4-fluoro-pyrrolidine-2-carbonitrile], the IC50 was found to be 10700 nM. `COc1cc2c(NC3CCN(CC(=O)N4C[C@@H](F)C[C@H]4C#N)CC3)cccc2cn1` [Example 355, (2S,4S)-4-fluoro-1-[2-[4-[(3-methoxy-5-isoquinolyl)amino]-1-piperidyl]acetyl]pyrrolidine-2-carbonitrile]: the half-maximal inhibitory concentration (IC50) was 14200 nM.

As to `N#C[C@@H]1CCCN1C(=O)CN1CC[C@H](Nc2ccc(F)c3ncccc23)C1` [Example 244, (2S)-1-[2-[(3S)-3-[(8-fluoro-5-quinolyl)amino]pyrrolidin-1-yl]acetyl]pyrrolidine-2-carbonitrile], the IC50 was 11100 nM. With `COc1cnc2cccc(N[C@H]3CCN(CC(=O)N4CCC[C@H]4C#N)C3)c2c1` [Example 233, (2S)-1-[2-[(3S)-3-[(3-methoxy-5-quinolyl)amino]pyrrolidin-1-yl]acetyl]pyrrolidine-2-carbonitrile] the figure was 11500 nM; with `N#Cc1ccc(N[C@H]2CCN(CC(=O)N3CCC[C@H]3C#N)C2)c2cccnc12` [Example 247, 5-[[(3S)-1-[2-oxo-2-[(2S)-2-cyanopyrrolidin-1-yl]ethyl]pyrrolidin-3-yl]amino]quinoline-8-carbonitrile], above 10000 nM; with `N#C[C@@H]1CCCN1C(=O)CN1CC[C@H](Nc2ccc(C(F)(F)F)c3ncccc23)C1` [Example 245, (2S)-1-[2-[(3S)-3-[[8-(trifluoromethyl)-5-quinolyl]amino]pyrrolidin-1-yl]acetyl]pyrrolidine-2-carbonitrile], 9470 nM. Take `COc1cnc2cccc(NC3CCN(CC(=O)N4C[C@@H](F)C[C@H]4C#N)CC3)c2c1` [Example 348, (2S,4S)-4-fluoro-1-[2-[4-[(3-methoxy-5-quinolyl)amino]-1-piperidyl]acetyl]pyrrolidine-2-carbonitrile]: the half-inhibitory concentration (IC50) came to 10000 nM.

Consider `N#C[C@@H]1C[C@H](F)CN1C(=O)CN1CCC(Nc2ccc(C(F)(F)F)c3ncccc23)CC1` [Example 334, (2S,4S)-4-fluoro-1-[2-[4-[[8-(trifluoromethyl)-5-quinolyl]amino]-1-piperidyl]acetyl]pyrrolidine-2-carbonitrile], for which the IC50 was 2300 nM and 2780 nM. With `N#C[C@@H]1C[C@H](F)CN1C(=O)CN1CCC(Nc2ccc(OC(F)(F)F)c3ncccc23)CC1` [Example 347, (2S,4S)-4-fluoro-1-[2-[4-[[8-(trifluoromethoxy)-5-quinolyl]amino]-1-piperidyl]acetyl]pyrrolidine-2-carbonitrile] the figure was 4580 nM; with `N#C[C@@H]1C[C@H](F)CN1C(=O)CN1CC[C@H](Nc2cccc3ncc(F)cc23)C1` [Example 255, (2S,4S)-4-fluoro-1-[2-[(3S)-3-[(3-fluoro-5-quinolyl)amino]pyrrolidin-1-yl]acetyl]pyrrolidine-2-carbonitrile], 2210 nM.

Turning to `N#C[C@@H]1C[C@H](F)CN1C(=O)CN1CC[C@H](Nc2ccc(OCc3ccccc3)c3ncccc23)C1` [Example 268, (2S,4S)-4-fluoro-1-[2-[(3S)-3-[(8-benzyloxy-5-quinolyl)amino]pyrrolidin-1-yl]acetyl]pyrrolidine-2-carbonitrile], the IC50 is 3520 nM. To `Cc1ccc2nccc(OC3CCN(CC(=O)N4C[C@@H](F)C[C@H]4C#N)CC3)c2c1` [Example 410, (2S,4S)-4-fluoro-1-[2-[4-[(6-methyl-4-quinolyl)oxy]-1-piperidyl]acetyl]pyrrolidine-2-carbonitrile] belongs 3170 nM; to `N#C[C@@H]1C[C@H](F)CN1C(=O)CN1CC[C@H](Nc2cccc3ncccc23)C1` [Example 228, (2S,4S)-4-fluoro-1-[2-[(3S)-3-(5-quinolylamino)pyrrolidin-1-yl]acetyl]pyrrolidine-2-carbonitrile], 4290 nM. Consider `N#Cc1cnc2cccc(N[C@H]3CCN(CC(=O)N4CCC[C@H]4C#N)C3)c2c1` [Example 232, 5-[[(3S)-1-[2-oxo-2-[(2S)-2-cyanopyrrolidin-1-yl]ethyl]pyrrolidin-3-yl]amino]quinoline-3-carbonitrile], for which the IC50 was 13700 nM. Take `N#C[C@@H]1C[C@H](F)CN1C(=O)CN1CCC(Nc2cccc3ncc(F)cc23)CC1` [Example 349, (2S,4S)-4-fluoro-1-[2-[4-[(3-fluoro-5-quinolyl)amino]-1-piperidyl]acetyl]pyrrolidine-2-carbonitrile]: the IC50 came to 5200 nM. Take `COc1ccc(N[C@H]2CCN(CC(=O)N3C[C@@H](F)C[C@H]3C#N)C2)c2cccnc12` [Example 263, (2S,4S)-4-fluoro-1-[2-[(3S)-3-[(8-methoxy-5-quinolyl)amino]pyrrolidin-1-yl]acetyl]pyrrolidine-2-carbonitrile]: the IC50 turned out to be 3470 nM.

These data come from patent US11655235B2, “Pyrrolidine and piperidine compounds” (YUHAN CORPORATION, priority 2019, dated 2023).
